Data reported in US20100022604A1, “PROPHYLACTIC OR THERAPEUTIC AGENT FOR ALOPECIA” (TAISHO PHARMACEUTICAL CO., LTD., priority 2006, published 2010).

Tested on: C57BL mice, shaved dorsal area (hair growth)
Assay: Hair growth stimulatory effect measurement test in shaved mouse model
Format: in vivo
Procedure: Hair Growth Stimulatory Effect Measurement Test in Shaved Mouse Model
Dorsal hair of each of C57BL mice (female, about 7-week old) was shaved, and 200 μL of each of test compounds (90 mM) dissolved into 99% ethanol was applied to the shaved area once a day for 40 days from the day 3 after the shaving. As the evaluated compounds, the compound of the present invention and the compound (GPI-1511) disclosed in International Publication No. WO98/55090 were used. As a control, a group in which 200 μL of the vehicle was applied was used.
A hair growth state of the shaved area of each of 10 to 12 mice of each group was rated every 2 or 3 days after the start of administration by using the following hair growth score criteria.
(Hair Growth Score Criteria)
2=hair growth in less than 30% of shaved area
3=hair growth in 30% or more and less than 60% of shaved area
4=hair growth in 60% or more and less than 90% of shaved area
5=hair growth in 90% or more of shaved area

## COc1ccc(OCc2nc([C@@H]3CCCN3C(=O)C(F)(F)C3(O)CC(C)(C)CC(C)(C)C3)no2)cc1OC [compound of the present invention, 1-[2-((2S)-2-{5-[(3,4-dimethoxyphenoxy)methyl]-1,2,4-oxadiazol-3-yl}pyrrolidin-1-yl)-1,1-difluoro-2-oxoethyl]-3,3,5,5-tetramethylcyclohexanol]
18 μmol topical once a day, from day 19 of administration
  increase in hair growth score from the day 19 of the administration: remarkable
18 μmol topical once a day, over the whole test period
  hair growth score compared to the group with GPI-1511: higher than that of the group with GPI-1511 over the whole test period
female, 18 μmol (200 μL of 90 mM in 99% ethanol) applied to the shaved area once a day for 40 days, score 1-5, FIG. 1
  hair growth score compared to the vehicle (control) group: an increase in hair growth score was exhibited from an early stage
